Legend:
[1] = target: T1, Full-length inactive AKT1 (Homo sapiens, UniProt P31749); assay: Inactive Akt HTRF Assay (Akt1)
Method: AKT1 activity was assayed using CisBio KinEASE™ HTRF Assay technology. This technology utilizes a proprietary biotinylated peptide substrate (STKS3), streptavidin labeled XL665 antibody, and STK antibody-Eu^3+-cryptate. AKT1 activation was achieved by the addition of the activating kinases PDK1 and MAPKAPK2, lipid vesicles, and ATP. The extent of STKS3 biotinylated peptide phosphorylation was determined using a phospho-STK antibody-Eu^3+-cryptate and streptavidin labeled XL665 antibody. XL665 was stimulated by Eu^3+-cryptate resulting in a TR-FRET signal proportional to the SKS3 phosphorylation level.

[2] = target: T1, Full-length inactive AKT1; assay: Inactive Akt Alpha Screen Assay; assay type: biochemical; settings: values not marked with "*"; read-out: Akt1 IC50, (AlphaScreen)
Procedure, shortened: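 AlphaScreen read-out (excitation 640 nm, emission 570 nm) after 90 min incubation at room temperature in the dark. Signal comes from crosstide phosphorylation by AKT1, which was activated by added PDK1, MAPKAPK2, ATP and lipid vesicles, captured via phospho-AKT substrate antibody and streptavidin beads.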

[3] = tested on: A2780; assay: MTS Assay, cell proliferation, A2780; assay type: cell-based; settings: Homo sapiens, read-out: Average of [CELL], IC50, MTS (72 hours; 10 Percent; FBS) A2780
Method: (§1) Cell proliferation analysis. Cell survival was determined by the MTS assay. Briefly, cells were plated in a 96-well plate at 2,000-10,000 cells per well, cultured for 24 hours in complete growth medium, and then treated with various drugs and drug combinations for 72 hours. MTS was added and incubated for 4 hour, followed by assessment of cell viability using the microplate reader at 570 nm. Data were normalized to untreated controls and analyzed with Microsoft Excel.

[4] = tested on: AN3CA; assay: MTS Assay, cell proliferation, AN3CA; assay type: cell-based; settings: Homo sapiens, AN3-CA, read-out: Average of [CELL], IC50, MTS (72 hours; 10 Percent; FBS) AN3CA
Method: as §1

[5] = tested on: BT474; assay: MTS Assay, cell proliferation, BT474; assay type: cell-based; settings: Homo sapiens, BT-474, read-out: Average of [CELL], IC50, MTS (72 hours; 10 Percent; FBS) BT474
Method: as §1

[6] = tested on: LnCap; assay: MTS Assay, cell proliferation, LnCap; assay type: cell-based; settings: Homo sapiens, read-out: Average of [CELL], IC50, MTS (72 hours; 10 Percent; FBS) LnCap
Method: as §1

[7] = tested on: Zr75-1; assay: MTS Assay, cell proliferation, Zr75-1; assay type: cell-based; settings: Homo sapiens, ZR-75-1, read-out: Average of [CELL], IC50, MTS (72 hours; 10 Percent; FBS) Zr75-1
Method: as §1

[8] = tested on: IGROV; assay: MTS Assay, cell proliferation, IGROV; assay type: cell-based; settings: read-out: Average of [CELL], IC50, MTS (72 hours; 10 Percent; FBS) IGROV
Method: as §1

T1 sequence (P31749 whole entry): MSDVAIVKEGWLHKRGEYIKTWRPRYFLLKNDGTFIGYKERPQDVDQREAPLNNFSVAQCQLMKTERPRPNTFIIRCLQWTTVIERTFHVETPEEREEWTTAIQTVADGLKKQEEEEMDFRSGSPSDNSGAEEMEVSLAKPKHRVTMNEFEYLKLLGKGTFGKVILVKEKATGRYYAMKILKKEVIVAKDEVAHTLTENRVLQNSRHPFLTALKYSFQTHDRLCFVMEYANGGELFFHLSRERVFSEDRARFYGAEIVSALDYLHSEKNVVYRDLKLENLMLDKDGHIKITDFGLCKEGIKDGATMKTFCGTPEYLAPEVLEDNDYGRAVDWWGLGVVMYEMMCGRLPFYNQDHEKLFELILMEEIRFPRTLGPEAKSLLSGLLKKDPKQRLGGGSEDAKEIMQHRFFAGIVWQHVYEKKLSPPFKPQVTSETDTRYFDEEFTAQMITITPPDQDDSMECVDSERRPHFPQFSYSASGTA

| Compound | IC50 [1] [µM] | IC50 [2] [nM] | IC50 [3] [nM] | IC50 [5] [nM] | IC50 [6] [µM] | IC50 [4] [µM] | IC50 [7] [µM] | IC50 [8] [nM] |
| --- | --- | --- | --- | --- | --- | --- | --- | --- |
| Cc1ccc(-c2cnc3c(c2)nc(-c2cccnc2N)n3-c2ccc(CNC(=O)c3ccccc3)cc2)cc1 [Example 144, N-{4-[2-(2-aminopyridin-3-yl)-6-(4-methylphenyl)-3H-imidazo[4,5-b]pyridin-3-yl]benzyl}benzamide] | 4.5 | – | – | – | – | – | – | – |
| Nc1ncccc1-c1nc2cccnc2n1-c1ccc(C(=O)NCc2ccccc2)cc1 [Example 178, 4-[2-(2-aminopyridin-3-yl)-3H-imidazo[4,5-b]pyridin-3-yl]-N-benzylbenzamide] | 7.1 | – | – | – | – | – | – | – |
| Nc1ncccc1-c1nc2ccc(-c3cn[nH]c3)nc2n1-c1ccc(CNC(=O)c2cccc(F)c2)cc1 [Example 305, N-(4-(2-(2-aminopyridin-3-yl)-5-(1H-pyrazol-4-yl)-3H-imidazo[4,5-b]pyridin-3-yl)benzyl)-3-fluorobenzamide] | – | 12 | 6800 | 4200 | 13 | 12 | 8.2 | – |
| Nc1ncccc1-c1nc2ccc(-c3ccoc3)nc2n1-c1ccc(CNC(=O)c2cccc(F)c2)cc1 [Example 307, N-(4-(2-(2-aminopyridin-3-yl)-5-(furan-3-yl)-3H-imidazo[4,5-b]pyridin-3-yl)benzyl)-3-fluorobenzamide] | – | 35 | 2900 | 3600 | 4.9 | 6.3 | 9.1 | – |
| Nc1ncccc1-c1nc2ccc(-c3ccccc3)nc2n1-c1ccc(C2(N)CCC2)cc1 [Example 351, 3-(3-(4-(1-aminocyclobutyl)phenyl)-5-phenyl-3H-imidazo[4,5-b]pyridin-2-yl)pyridin-2-amine] | – | – | 720 | 1300 | 2.1 | 0.62 | 4.2 | 1700 |

The next lines start with results.

| IC50 [1] [µM] | IC50 [2] [nM] | IC50 [3] [nM] | IC50 [5] [nM] | IC50 [6] [µM] | Compound | IC50 [4] [µM] | IC50 [7] [µM] | IC50 [8] [nM] |
| --- | --- | --- | --- | --- | --- | --- | --- | --- |
| 8.1 | – | – | – | – | Nc1ncccc1-c1nc2cc(Br)cnc2n1-c1ccc(CNS(=O)(=O)c2ccc3ccccc3c2)cc1 [Example 157, N-{4-[2-(2-aminopyridin-3-yl)-6-bromo-3H-imidazo[4,5-b]pyridin-3-yl]benzyl}naphthalene-2-sulfonamide] | – | – | – |
| – | 21 | 2300 | 1800 | 2.6 | Nc1ncccc1-c1nc2ccc(-c3cccc(CO)c3)nc2n1-c1ccc(CNC(=O)c2cccc(F)c2)cc1 [Example 308, N-(4-(2-(2-aminopyridin-3-yl)-5-(3-(hydroxymethyl)phenyl)-3H-imidazo[4,5-b]pyridin-3-yl)benzyl)-3-fluorobenzamide] | 2.5 | 4.3 | – |
| – | 14 | 6300 | 2500 | 4.2 | CC(=O)Nc1cccc(-c2ccc3nc(-c4cccnc4N)n(-c4ccc(CNS(=O)(=O)c5ccccc5)cc4)c3n2)c1 [Example 324, N-(3-(2-(2-aminopyridin-3-yl)-3-(4-(phenylsulfonamidomethyl)phenyl)-3H-imidazo[4,5-b]pyridin-5-yl)phenyl)acetamide] | 5 | 3.6 | – |
